Values of other authors as cited in US10421941B2, “Process for improving the solubility of cell culture media” (Merck Patent GmbH, priority 2014, dated 2019).

Settings: water / aqueous solvents

Structure (SMILES) | solubility (in words)
N[C@@H](CSSC[C@H](N)C(=O)O)C(=O)O [cystine] | poorly soluble
CC[C@H](C)[C@H](N)C(=O)O [isoleucine] | moderate
CC(C)[C@H](N)C(=O)O [valine] | moderate
CC(C)C[C@H](N)C(=O)O [leucine] | moderate
